Assay results: PMC12563652 (International Journal of Molecular Sciences, 2025)
Several values for one entry are separate records, joined by “and”; a condition that tells them apart may be missing. Equal entries are not always repeated. Where two headings read alike, the source gives them in different places. Marks after values point to notes of the source that are not given here.

Key:
α2B-adrenoceptor [1] = target: T1, α2B-adrenoceptor (Homo sapiens, UniProt P18089); conditions: read-out: α2B Ant IC50; cited from earlier work
T1 sequence (P18089 1-450): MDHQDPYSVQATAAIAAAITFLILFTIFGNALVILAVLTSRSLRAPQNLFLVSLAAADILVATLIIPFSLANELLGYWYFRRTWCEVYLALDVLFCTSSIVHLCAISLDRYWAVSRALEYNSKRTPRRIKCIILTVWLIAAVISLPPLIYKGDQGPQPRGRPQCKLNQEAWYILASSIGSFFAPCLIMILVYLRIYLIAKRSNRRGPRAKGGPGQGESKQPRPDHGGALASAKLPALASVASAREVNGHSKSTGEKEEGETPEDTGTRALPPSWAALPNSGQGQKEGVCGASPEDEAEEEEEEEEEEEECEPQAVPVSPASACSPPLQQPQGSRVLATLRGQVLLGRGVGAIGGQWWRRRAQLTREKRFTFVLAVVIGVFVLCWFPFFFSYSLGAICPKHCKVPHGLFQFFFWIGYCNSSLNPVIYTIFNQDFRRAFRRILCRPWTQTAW

[2] = rat, intraperitoneal administration; cited from earlier work
α2A-adrenoceptor = target: T2, α2A-adrenoceptor (Homo sapiens, UniProt P08913); conditions: cited from earlier work
T2 sequence (P08913 1-465): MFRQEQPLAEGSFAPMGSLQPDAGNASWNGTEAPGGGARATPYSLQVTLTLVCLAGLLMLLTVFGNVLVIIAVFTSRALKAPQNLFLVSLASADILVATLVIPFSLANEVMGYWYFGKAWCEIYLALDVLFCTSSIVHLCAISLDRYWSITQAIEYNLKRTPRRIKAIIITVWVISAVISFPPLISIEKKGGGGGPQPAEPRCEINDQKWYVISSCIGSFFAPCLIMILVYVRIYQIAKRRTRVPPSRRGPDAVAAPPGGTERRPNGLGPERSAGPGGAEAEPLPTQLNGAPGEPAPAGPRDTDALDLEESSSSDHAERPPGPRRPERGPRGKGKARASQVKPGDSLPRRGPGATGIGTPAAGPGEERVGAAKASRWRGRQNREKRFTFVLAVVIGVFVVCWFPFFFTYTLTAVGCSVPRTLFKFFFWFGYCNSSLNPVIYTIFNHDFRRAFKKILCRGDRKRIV

human TAAR1 [3] = target: T3, human TAAR1 (Homo sapiens, UniProt Q96RJ0); conditions: at 10^−4 M; cited from earlier work
T3 sequence (Q96RJ0 1-339): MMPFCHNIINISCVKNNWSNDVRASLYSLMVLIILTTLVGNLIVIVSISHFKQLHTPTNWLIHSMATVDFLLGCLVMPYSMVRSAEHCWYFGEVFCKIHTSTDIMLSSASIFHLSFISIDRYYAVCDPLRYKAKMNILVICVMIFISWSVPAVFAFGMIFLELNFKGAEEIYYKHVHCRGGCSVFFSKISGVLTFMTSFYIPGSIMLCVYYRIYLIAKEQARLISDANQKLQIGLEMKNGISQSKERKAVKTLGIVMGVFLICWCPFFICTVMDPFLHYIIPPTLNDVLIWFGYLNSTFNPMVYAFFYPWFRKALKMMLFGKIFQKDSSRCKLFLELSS

α2-adrenoceptor = test: Competitive radioligand binding, [3H]clonidine, rat cerebral cortex; conditions: n.a. = no activity at 10–5 M
Experimental: The competitive radioligand-binding assay assessed affinity for α1- and α2-adrenoceptors. Experiments were carried out in the rat cerebral cortex. […] The membrane preparation and assay technique followed the previously reported protocol [10]. Radioactivity was measured using the MicroBeta2 scintillation counter (PerkinElmer, Kraków, Poland). The data was adjusted to match a single-site curve-fitting formula using Prism 8 (GraphPad Software, La Jolla, CA, USA), and the Ki values were estimated by means of the Cheng–Prusoff formula.

α2B-adrenoceptor [4] = target: T1, α2B-adrenoceptor; test: α2B-adrenoceptor intrinsic activity, antagonist mode (AequoScreen); format: cell-based; conditions: n.a. = no activity at 10–5 M; read-out: α2B Ant IC50
Experimental: (§1) The determination of intrinsic activity will be performed in accordance with the manufacturer’s Aequoscreen methodology—Perkin Elmer.
(§2) The cell density in the 96-well format was 5000 cells per well. Cell preparation for the assay was performed according to the manufacturer’s instructions for AequoScreen (PerkinElmer, Waltham, MA, USA). […] The cells suspension was applied onto the ligands with the injectors of the POLARstar optima reader (BMG Labtech, Ortenberg, Germany). […] The concentration and dilution series having four replicates were prepared as instructed in the AequoScreen Starter Kit Manual (PerkinElmer, Waltham, MA, USA). The wells received cell injections along with either the standard agonist or the compounds being evaluated, while the POLARstar optima reader documented the emitted light over a duration of 20 s. In the antagonist evaluation, cells were administered (50 μL) into the assay plate alongside antagonist solutions (50 μL). A single concentration of agonist (oxymetazoline) was injected (50 μL, final concentration EC80) into the preincubated (15–20 min) plate with cells and antagonist, and the emitted light was recorded for 20 s.

[5] = target: T4, 5-HT2C serotoninergic receptor (Homo sapiens, UniProt P28335); test: 5-HT2C intrinsic activity, antagonist mode (AequoScreen calcium mobilization); format: cell-based
T4 sequence (P28335 33-458): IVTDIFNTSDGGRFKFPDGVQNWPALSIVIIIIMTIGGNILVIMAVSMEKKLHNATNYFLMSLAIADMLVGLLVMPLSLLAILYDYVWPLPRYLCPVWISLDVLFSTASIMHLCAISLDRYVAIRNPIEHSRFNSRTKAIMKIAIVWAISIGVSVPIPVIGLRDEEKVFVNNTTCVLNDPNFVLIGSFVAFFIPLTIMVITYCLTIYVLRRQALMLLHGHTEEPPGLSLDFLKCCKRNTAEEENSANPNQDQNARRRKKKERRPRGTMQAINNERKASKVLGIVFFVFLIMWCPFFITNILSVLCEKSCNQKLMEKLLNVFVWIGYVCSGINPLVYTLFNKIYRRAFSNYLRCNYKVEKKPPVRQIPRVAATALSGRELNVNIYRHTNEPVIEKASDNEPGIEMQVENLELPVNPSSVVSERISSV
Experimental: as §1, §2

α1-adrenoceptor = test: Competitive radioligand binding, [3H]prazosin, rat cerebral cortex; conditions: n.a. = no activity at 10–5 M
Experimental: The competitive radioligand-binding assay assessed affinity for α1- and α2-adrenoceptors. Experiments were carried out in the rat cerebral cortex. […] The membrane preparation and assay technique followed the previously reported protocol. Radioactivity was measured using the MicroBeta2 scintillation counter (PerkinElmer, Kraków, Poland). The data was adjusted to match a single-site curve-fitting formula using Prism 8 (GraphPad Software, La Jolla, CA, USA), and the Ki values were estimated by means of the Cheng–Prusoff formula.

human TAAR1 [6] = target: T3, human TAAR1; test: TAAR1 agonist activity, Hit Hunter cAMP assay; format: cell-based
Experimental: The intrinsic activity of the TAAR1 receptor will be assessed according to the manufacturer’s protocol, using the Hit Hunter® cAMP assay by DiscoverX. This assay enables monitoring of GPCR activation in cells stably expressing TAAR1 by measuring changes in the level of the secondary messenger, cAMP. The cAMP Hunter cell lines were cultured from frozen stocks following standard procedures. Cells were plated in white-walled 384-well microplates at a total volume of 20 µL per well and incubated at 37 °C for the required period before analysis. To assess agonist activity, cells were exposed to the test compound to trigger a response. The culture medium was then removed and replaced with 15 µL of a 2:1 mixture of HBSS and 10 mM Hepes containing the cAMP XS+ antibody reagent. Sample stocks were diluted to prepare a 4× concentration in assay buffer. Subsequently, 5 µL of the 4× sample was added to each well, and the plates were incubated at either 37 °C or room temperature for 30 or 60 min. The vehicle was used at a concentration of 1%. After incubating the compounds for the required time, the assay signal was produced by adding 20 µL of the cAMP XS+ ED/CL lysis cocktail and incubating for one hour. This was followed by a three-hour incubation with 20 µL of the cAMP XS+EA reagent at room temperature. After signal development, the microplates were read using a PerkinElmer Envision Reader to detect chemiluminescence.

TAAR1 = conditions: cited from earlier work
[7] = system: platelet aggregation in rat whole blood; test: In vitro collagen-induced platelet aggregation in rat whole blood (impedance aggregometry); format: cell-based; conditions: collagen 1.6 µg/mL
Experimental: In vitro platelet aggregation assays were conducted using freshly collected whole blood from rats, utilizing the Multiplate platelet function analyzer (Roche Diagnostics, Mannheim, Germany)—a five-channel device that measures electrical impedance, following methods described previously. Upon stimulation, platelets adhere to and aggregate on dual metal sensors within the test cuvette, causing an increase in electrical resistance, which corresponds to the number of platelets attached to the electrodes.
Blood was collected from the carotid artery of the rat into tubes coated with hirudin (S-Monovette, Sarstedt, Germany). A volume of 300 μL of the anticoagulated blood was mixed with 300 μL of prewarmed isotonic saline that contained the test compound or a vehicle control (0.1% DMSO) and incubated at 37 °C for 3 min under continuous stirring. Aggregation was triggered by adding collagen (final concentration: 1.6 µg/mL). Platelet activity was monitored for 6 min. Multiplate V2.04 software calculated the area under the curve (AUC) for each measurement to determine average platelet response.

Danio rerio larvae [8] = test: Fructose-induced lipid disturbance in zebrafish larvae (Oil Red O); format: in vivo; conditions: 20 µg/mL with 4% fructose, 24 h
Experimental: Zebrafish larvae 4 dpf were incubated for another 24 h with 4% fructose (final solution) in embryo medium to induce metabolic disorders. Tested solutions (compounds in E3: JP-14 at concentration of 20 μg/mL or resveratrol of 40 μg/mL) were added to fructose solution (8% in E3). The final concentration of JP-14 was 10 μg/mL or resveratrol of 20 μg/mL. The control group was incubated with E3 only. Incubation was carried out in a 6-well plate (10 larvae/well) to which 3 mL of liquid was added per well. Larvae were then collected, euthanized with tricaine, and transferred to 4% formaldehyde solution. After 24 h, larvae were washed 3 times with PBS (Sigma-Aldrich, Germany) and stained for neutral lipids, similar to previous studies. Larvae incubated for 1 h in a solution of 0.25% oil red O (ORO, Merck, Darmstadt, Germany) in 60% isopropanol (Merck, Germany). The samples were then rinsed three times with 60% isopropanol and washed 6 times with PBS, then imaged on a microscope (OPTA-TECH MN16, Warszawa, Poland) and analyzed with the ImageJ FIJI program. […] Next, the samples were centrifuged (10 min, 3000 rpm, MPW-260R, MPW Med Instruments, Warszawa, Poland), and the amount of dye in supernatant was determined spectrophotometrically (MuLTISKAN.GO, Thermo Fisher Scientific Inc. Waltham, MA, USA) at a wavelength of 495 nm.

Danio rerio larvae [9] = test: Nile red fluorescence fat metabolism assay in zebrafish larvae; format: in vivo; conditions: 20 µg/mL, 48 h incubation of larvae
Experimental: The study was conducted based on the method described earlier by Jones et al.. Starting at 3 days after fertilization (dpf), larvae were placed into 6-well plates and incubated with the test solutions (compounds in E3: JP-14 at a concentration of 10 μg/mL or resveratrol or E3 alone) for 48 h. Resveratrol solution (20 μg/mL) was used as the reference compound. After 24 h, the solutions were replaced with new ones containing Nile red dye (9-diethylamino-5H-benzo[α]phenoxazine-5-one, Pol-aura, Poland) at a concentration of 100 ng/mL. Nile red is a selective fluorescent lipid dye used to stain lipid droplets. Incubation with the dye was therefore 24 h. Stock solution of Nile red was prepared earlier by dissolving it in acetone to a concentration of 500 μg/mL. After the incubation period, the larvae were rinsed 3 times with 0.1 M phosphate-buffered, pH 7.4 (PBS, Sigma-Aldrich, Schnelldorf, Germany) and anesthetized with cold […] tricaine solution (Sigma-Aldrich, Schnelldorf, Germany). Next, they were visualized under a fluorescence microscope (Zeiss.Discovery.V8, Zeiss, Oberkochen, Germany) and analyzed with ImageJ FIJI program (version 2.17.0).

Molecule: 4-OH-guanabenz
- IC50 (α2B-adrenoceptor [1]): 330 nM
- highest (peak) level in brain [2]: 64.5 ng/g
- tmax in brain [2]: 15 min
- α2A-adrenoceptor activation (α2A-adrenoceptor; partial agonist): 30%
- EC50 (α2A-adrenoceptor; read-out: α2A Ago EC50): 316 nM
- TAAR1 Ago Emax (max Ago) (human TAAR1 [3]): 34%/ (10^−4M) ^a

Molecule: COc1ccc(F)c(/C=N/NC(=N)N)c1F [8 (JP10)]
- Ki (α2-adrenoceptor): 232 ± 8.5 nM
- IC50 (α2B-adrenoceptor [4]): 220 nM

Molecule: CC[C@@H](CO)NC(=O)[C@@H]1C=C2c3cccc4c3c(cn4C)C[C@H]2N(C)C1 [MSE, methysergide]
- EC50 [5]: 1.1 ± 0.1 nM

Molecule: Cc1ccc(N(CC2=NCCN2)c2cccc(O)c2)cc1 [PHT, phentolamine]
- Ki (α1-adrenoceptor): 10.9 ± 0.8 nM

Molecule: N=C(N)N/N=C/c1c(Cl)cccc1Cl [guanabenz]
- TAAR1 Ago Emax (human TAAR1 [6]; % of maximal response induced by the full agonist tyramine, listed as GNB): 60%
- EC50 (human TAAR1 [6]; cAMP accumulation, n.a. = no activity at 10–5 M, read-out: TAAR1 Ago EC50): 300 nM and 301 nM
- Emax (human TAAR1 [6]; read-out: TAAR1 Ago Emax, % of maximal response induced by the full agonist tyramine): 50%
- highest (peak) level in brain [2]: 183.2 ng/g
- tmax in brain [2]: 60 min
- EC50 (TAAR1): 8.5 nM
- increase of collagen-induced platelet aggregation ([7]; 10 µM): 31.81%
- increase of collagen-induced platelet aggregation ([7]; 100 µM): 22.73%

Molecule: Oc1ccc(/C=C/c2cc(O)cc(O)c2)cc1 [resveratrol]
- fructose-induced yolk enlargement (Danio rerio larvae [8]): Comparable effects
- Nile red detectable fat (Danio rerio larvae [9]): slightly stronger effect
